These results are taken from US20240390340A1 (INCYTE CORPORATION, priority 2023, published 2024).

The target of one assay is KRAS G12D (Homo sapiens, UniProt P01116, G12D). As to the kind of experiment: GDP-GTP exchange assay (bodipy-GDP/GppNHp, SOS1), KRAS G12D. Format: biochemical. Particulars: bodipy-loaded KRAS G12D 2.5 nM, 4 h pre-incubation; value for the most potent isomer quoted for certain compounds; read-out: G12D (KRAS G12D exchange assay IC50).
Another assay addresses KRAS G12V (Homo sapiens, UniProt P01116, G12V). As to the kind of experiment: GDP-GTP exchange assay (bodipy-GDP/GppNHp, SOS1), KRAS G12V. Type of assay: biochemical. Particulars: KRAS G12V mutant; value for the most potent isomer quoted for certain compounds; read-out: G12V (KRAS G12V exchange assay IC50).

pIC50: −log10 of the molar value.

Chain of KRAS G12V (P01116 1-188 isoform P01116-2 G12V): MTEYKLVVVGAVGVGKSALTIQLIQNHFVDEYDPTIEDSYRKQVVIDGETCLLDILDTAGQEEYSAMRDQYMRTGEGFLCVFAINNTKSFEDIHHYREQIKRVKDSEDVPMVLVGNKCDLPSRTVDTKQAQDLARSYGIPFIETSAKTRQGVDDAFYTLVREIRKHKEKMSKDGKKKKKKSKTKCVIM
Chain of KRAS G12D (P01116 1-188 isoform P01116-2 G12D): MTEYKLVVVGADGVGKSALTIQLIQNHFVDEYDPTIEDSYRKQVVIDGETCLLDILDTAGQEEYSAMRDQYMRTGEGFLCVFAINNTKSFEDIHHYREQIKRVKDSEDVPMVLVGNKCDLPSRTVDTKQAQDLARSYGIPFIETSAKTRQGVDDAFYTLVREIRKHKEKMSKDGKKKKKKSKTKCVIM

Broadly, the pIC50 is −log10 of the IC50, conventionally taken in molar units. On to `Cc1nc2c(F)c(-c3cccc(Cl)c3Cl)c(CCC#N)cc2c2c1cc([C@H]1C[C@H](OC[C@H]3CCOC3)CN1C(=O)C1CC1)n2[C@H]1[C@H]2CN[C@@H]1C2` [Example 372], for which the pIC50 at KRAS G12D and at KRAS G12V was not below 7.00 throughout.
For the compound `Cc1nc2c(F)c(-c3cccc(Cl)c3Cl)c(CCC#N)cc2c2c1cc([C@H]1C[C@H](OC[C@@H]3CCOC3)CN1C(=O)C1CC1)n2[C@H]1[C@H]2CN[C@@H]1C2` [Example 373], the pIC50 on KRAS G12D and at KRAS G12V was not below 7.00 in each case.
Regarding `Cc1nc2c(F)c(-c3cccc(Cl)c3Cl)c(CCC#N)cc2c2c1cc([C@H]1C[C@H](Oc3cnn(C(F)(F)F)c3)CN1C(=O)C1CC1)n2[C@H]1[C@H]2CN[C@@H]1C2` [Example 374], the pIC50 on KRAS G12D and on KRAS G12V was not below 7.00 in each case.
In the case of `Cc1nc2c(F)c(-c3cccc(Cl)c3Cl)c(CCC#N)cc2c2c1cc([C@H]1C[C@H](Oc3cc(C(F)(F)F)nn3C)CN1C(=O)C1CC1)n2[C@H]1[C@H]2CN[C@@H]1C2` [Example 375], the pIC50 at KRAS G12D and at KRAS G12V was not below 7.00 each time.
For the compound `Cc1nc2c(F)c(-c3cccc(Cl)c3Cl)c(CCC#N)cc2c2c1cc([C@H]1C[C@H](Oc3cn(C)nc3C(F)(F)F)CN1C(=O)C1CC1)n2[C@H]1[C@H]2CN[C@@H]1C2` [Example 376], the pIC50 at KRAS G12D and at KRAS G12V was not below 7.00 throughout.
As to `Cc1nc2c(F)c(-c3cccc(Cl)c3Cl)c(CCC#N)cc2c2c1cc([C@H]1C[C@H](Oc3cnn(CC(F)F)c3)CN1C(=O)C1CC1)n2[C@H]1[C@H]2CN[C@@H]1C2` [Example 377], the pIC50 on KRAS G12D and on KRAS G12V was not below 7.00 in each case.
In the case of `Cc1nc2c(F)c(-c3cccc(Cl)c3Cl)c(CCC#N)cc2c2c1cc([C@H]1C[C@H](OC3CC3C(=O)NC(C)(C)C)CN1C(=O)C1CC1)n2[C@H]1[C@H]2CN[C@@H]1C2` (stereo partly drawn) [Example 378], the pIC50 at KRAS G12D and at KRAS G12V was not below 7.00 in each case.
Regarding `Cc1nc2c(F)c(-c3cccc(Cl)c3Cl)c(CCC#N)cc2c2c1cc([C@H]1C[C@H](OC3CC3C)CN1C(=O)C1CC1)n2[C@H]1[C@H]2CN[C@@H]1C2` (stereo partly drawn) [Example 379], the pIC50 on KRAS G12D and on KRAS G12V was not below 7.00 in each case.
For the compound `Cc1nc2c(F)c(-c3cccc(Cl)c3Cl)c(CCC#N)cc2c2c1cc([C@H]1C[C@H](n3cc(C(F)F)nn3)CN1C(=O)C1CC1)n2[C@H]1[C@H]2CN[C@@H]1C2` [Example 380], the pIC50 on KRAS G12D and at KRAS G12V was not below 7.00 in each case.
`Cc1nc2c(F)c(-c3cccc(Cl)c3Cl)c(CCC#N)cc2c2c1cc([C@H]1C[C@H](n3cc(C4(CF)CC4)nn3)CN1C(=O)C1CC1)n2[C@H]1[C@H]2CN[C@@H]1C2` [Example 381]: the pIC50 at KRAS G12D and at KRAS G12V was not below 7.00 each time.
For `Cc1nc2c(F)c(-c3cccc(Cl)c3Cl)c(CCC#N)cc2c2c1cc([C@H]1C[C@H](n3cc(C4(C(C)(F)F)CC4)nn3)CN1C(=O)C1CC1)n2[C@H]1[C@H]2CN[C@@H]1C2` [Example 382], the pIC50 at KRAS G12D and at KRAS G12V was not below 7.00 in each case.
Take `COCC1(c2cn([C@H]3C[C@H](c4cc5c(C)nc6c(F)c(-c7cccc(Cl)c7Cl)c(CCC#N)cc6c5n4[C@H]4[C@H]5CN[C@@H]4C5)N(C(=O)C4CC4)C3)nn2)CC1` [Example 383]: the pIC50 on KRAS G12D and on KRAS G12V was not below 7.00 throughout.
Consider `Cc1nc2c(F)c(-c3cccc(Cl)c3Cl)c(CCC#N)cc2c2c1cc([C@H]1C[C@H](n3cc(C4(C)CCC4)nn3)CN1C(=O)C1CC1)n2[C@H]1[C@H]2CN[C@@H]1C2` [Example 384], for which the pIC50 at KRAS G12D and at KRAS G12V was not below 7.00 each time.
For the compound `Cc1nc2c(F)c(-c3cccc(Cl)c3Cl)c(CCC#N)cc2c2c1cc([C@H]1C[C@H](n3cc(C4(C)CCCC4)nn3)CN1C(=O)C1CC1)n2[C@H]1[C@H]2CN[C@@H]1C2` [Example 386], the pIC50 at KRAS G12D and at KRAS G12V was not below 7.00 each time.
For the compound `Cc1nc2c(F)c(-c3cccc(Cl)c3Cl)c(CCC#N)cc2c2c1cc([C@H]1C[C@H](n3cc(CCc4ccccc4)nn3)CN1C(=O)C1CC1)n2[C@H]1[C@H]2CN[C@@H]1C2` [Example 389], the pIC50 at KRAS G12D and at KRAS G12V was not below 7.00 throughout.
`COC(=O)[C@H]1C[C@H]1c1cn([C@H]2C[C@H](c3cc4c(C)nc5c(F)c(-c6cccc(Cl)c6Cl)c(CCC#N)cc5c4n3[C@H]3[C@H]4CN[C@@H]3C4)N(C(=O)C3CC3)C2)nn1` [Example 390]: the pIC50 at KRAS G12D and at KRAS G12V was not below 7.00 each time.
As for `COC(=O)C1CCC(c2cn([C@H]3C[C@H](c4cc5c(C)nc6c(F)c(-c7cccc(Cl)c7Cl)c(CCC#N)cc6c5n4[C@H]4[C@H]5CN[C@@H]4C5)N(C(=O)C4CC4)C3)nn2)C1` (stereo partly drawn) [Example 391], the pIC50 on KRAS G12D and on KRAS G12V was not below 7.00 in each case.
With `CCc1nnn([C@H]2C[C@H](c3cc4c(C)nc5c(F)c(-c6cccc(Cl)c6Cl)c(CCC#N)cc5c4n3[C@H]3[C@H]4CN[C@@H]3C4)N(C(=O)C3CC3)C2)c1-c1ccccc1` [Example 392], the pIC50 on KRAS G12D and at KRAS G12V was not below 7.00 in each case.
With `CCOC(=O)c1cnn([C@H]2C[C@H](c3cc4c(C)nc5c(F)c(-c6cccc(Cl)c6Cl)c(CCC#N)cc5c4n3[C@H]3[C@H]4CN[C@@H]3C4)N(C(=O)C3CC3)C2)n1` [Example 393], the pIC50 at KRAS G12D and at KRAS G12V was not below 7.00 each time.
Consider `CCOC(=O)c1cn([C@H]2C[C@H](c3cc4c(C)nc5c(F)c(-c6cccc(Cl)c6Cl)c(CCC#N)cc5c4n3[C@H]3[C@H]4CN[C@@H]3C4)N(C(=O)C3CC3)C2)nn1` [Example 394], for which the pIC50 at KRAS G12D and on KRAS G12V was not below 7.00 throughout.
As for `Cc1nc2c(F)c(-c3cccc(Cl)c3Cl)c(CCC#N)cc2c2c1cc([C@H]1C[C@H](n3cnnn3)CN1C(=O)C1CC1)n2[C@H]1[C@H]2CN[C@@H]1C2` [Example 395], the pIC50 on KRAS G12D and at KRAS G12V was not below 7.00 throughout.
For `Cc1nc2c(F)c(-c3cccc(Cl)c3Cl)c(CCC#N)cc2c2c1cc([C@H]1C[C@H](n3ncnn3)CN1C(=O)C1CC1)n2[C@H]1[C@H]2CN[C@@H]1C2` [Example 396], the pIC50 at KRAS G12D and on KRAS G12V was not below 7.00 each time.
On to `Cc1nc2c(F)c(-c3cccc(Cl)c3Cl)c(CCC#N)cc2c2c1cc([C@H]1C[C@H](n3nnnc3C)CN1C(=O)C1CC1)n2[C@H]1[C@H]2CN[C@@H]1C2` [Example 397], for which the pIC50 at KRAS G12D and at KRAS G12V was not below 7.00 each time.
As to `Cc1nnn([C@H]2C[C@H](c3cc4c(C)nc5c(F)c(-c6cccc(Cl)c6Cl)c(CCC#N)cc5c4n3[C@H]3[C@H]4CN[C@@H]3C4)N(C(=O)C3CC3)C2)n1` [Example 398], the pIC50 at KRAS G12D and at KRAS G12V was not below 7.00 each time.
In the case of `Cc1nc2c(F)c(-c3cccc(Cl)c3Cl)c(CCC#N)cc2c2c1cc([C@H]1C[C@H](n3nnc(-c4ccccc4)n3)CN1C(=O)C1CC1)n2[C@H]1[C@H]2CN[C@@H]1C2` [Example 399], the pIC50 on KRAS G12D and on KRAS G12V was not below 7.00 throughout.
With `Cc1nc2c(F)c(-c3cccc(Cl)c3Cl)c(CCC#N)cc2c2c1cc([C@H]1C[C@H](OC[C@@H]3CCCO3)CN1C(=O)C1CC1)n2[C@H]1[C@H]2CN[C@@H]1C2` [Example 400], the pIC50 at KRAS G12D and on KRAS G12V was not below 7.00 in each case.
In the case of `CO[C@H]1C[C@H](CO[C@H]2C[C@H](c3cc4c(C)nc5c(F)c(-c6cccc(Cl)c6Cl)c(CCC#N)cc5c4n3[C@H]3[C@H]4CN[C@@H]3C4)N(C(=O)C3CC3)C2)C1` [Example 401], the pIC50 at KRAS G12D and at KRAS G12V was not below 7.00 each time.
In the case of `Cc1nc2c(F)c(-c3cccc(Cl)c3Cl)c(CCC#N)cc2c2c1cc([C@H]1C[C@H](OC[C@H]3C[C@H](C#N)C3)CN1C(=O)C1CC1)n2[C@H]1[C@H]2CN[C@@H]1C2` [Example 402], the pIC50 at KRAS G12D and at KRAS G12V was not below 7.00 throughout.
Regarding `Cc1nc2c(F)c(-c3cccc(Cl)c3Cl)c(CCC#N)cc2c2c1cc([C@H]1C[C@H](OC[C@H]3C[C@@H](C#N)C3)CN1C(=O)C1CC1)n2[C@H]1[C@H]2CN[C@@H]1C2` [Example 403], the pIC50 at KRAS G12D and on KRAS G12V was not below 7.00 throughout.
Regarding `CC(O)c1nc2c(F)c(-c3cccc(Cl)c3Cl)c(CCC#N)cc2c2c1cc([C@H]1C[C@H](OCC3(C#N)CC3)CN1C(=O)C1CC1)n2[C@H]1[C@H]2CN[C@@H]1C2` (stereo partly drawn) [Example 404], the pIC50 on KRAS G12D and on KRAS G12V was not below 7.00 in each case.
For the compound `Cc1nc2c(F)c(-c3cccc(Cl)c3Cl)c(CCC#N)cc2c2c1cc([C@H]1C[C@H](OCc3nccs3)C(C)(C)N1C(=O)C1CC1)n2[C@H]1[C@H]2CN[C@@H]1C2` [Example 405], the pIC50 on KRAS G12D and at KRAS G12V was not below 7.00 each time.
In the case of `Cc1nc2c(F)c(-c3cccc(Cl)c3Cl)c(CCC#N)cc2c2c1cc([C@H]1C[C@H](Oc3ccnn3C(F)(F)F)CN1C(=O)C1CC1)n2[C@H]1[C@H]2CN[C@@H]1C2` [Example 406], the pIC50 on KRAS G12D and at KRAS G12V was not below 7.00 throughout.
Regarding `Cc1nc2c(F)c(-c3cccc(Cl)c3Cl)c(CCC#N)cc2c2c1cc([C@H]1C[C@H](Oc3ccn(C)c3C(F)(F)F)CN1C(=O)C1CC1)n2[C@H]1[C@H]2CN[C@@H]1C2` [Example 407], the pIC50 at KRAS G12D and on KRAS G12V was not below 7.00 throughout.
With `Cc1nn(CC(F)F)cc1O[C@H]1C[C@H](c2cc3c(C)nc4c(F)c(-c5cccc(Cl)c5Cl)c(CCC#N)cc4c3n2[C@H]2[C@H]3CN[C@@H]2C3)N(C(=O)C2CC2)C1` [Example 408], the pIC50 on KRAS G12D and at KRAS G12V was not below 7.00 throughout.
As to `Cc1nc2c(F)c(-c3cccc(Cl)c3Cl)c(CCC#N)cc2c2c1cc([C@H]1C[C@H](Oc3cc(C(F)(F)F)[nH]n3)CN1C(=O)C1CC1)n2[C@H]1[C@H]2CN[C@@H]1C2` [Example 409], the pIC50 on KRAS G12D and on KRAS G12V was not below 7.00 each time.
As for `Cc1nc2c(F)c(-c3cccc(Cl)c3Cl)c(CCC#N)cc2c2c1cc([C@H]1C[C@H](Oc3cnn(CC(F)F)c3C)CN1C(=O)C1CC1)n2[C@H]1[C@H]2CN[C@@H]1C2` [Example 410], the negative-log IC50 (pIC50) at KRAS G12D and on KRAS G12V was not below 7.00 throughout.
